Measured values as given in ChEMBL document CHEMBL1136941, “Discovery of novel arylpyrazole series as potent and selective opioid receptor-like 1 (ORL1) antagonists” (Bioorg Med Chem Lett, 2009).

Target: T1, Nociceptin receptor (Homo sapiens, UniProt P41146)
T1 sequence (P41146 whole entry): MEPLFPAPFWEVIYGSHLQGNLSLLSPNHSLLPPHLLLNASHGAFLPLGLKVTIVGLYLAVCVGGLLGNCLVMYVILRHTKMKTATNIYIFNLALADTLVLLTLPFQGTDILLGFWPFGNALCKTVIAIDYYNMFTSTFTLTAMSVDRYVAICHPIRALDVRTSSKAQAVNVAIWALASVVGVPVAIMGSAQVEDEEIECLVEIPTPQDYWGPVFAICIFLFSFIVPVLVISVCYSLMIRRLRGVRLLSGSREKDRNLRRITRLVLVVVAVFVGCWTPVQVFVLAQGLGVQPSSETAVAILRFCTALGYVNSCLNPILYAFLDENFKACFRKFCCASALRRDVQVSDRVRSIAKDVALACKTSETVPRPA
Test: Displacement of [125I]Tyr14-NC/OFQ from human ORL1 receptor
Settings: not given
In the case of Cc1c(CNC2CCCC2)nn(-c2ncccc2Cl)c1-c1ccc(Cl)nc1, the IC50 is reported as 11 nM. In the case of Cc1ccc(-c2c(C)c(CNC3CCCC3F)nn2-c2ncccc2Cl)cn1 (stereo not given), the IC50 is reported as 7.1 nM. Cc1c(CNC2CCCC2)nn(-c2ncccc2Cl)c1-c1ccc(C(F)(F)F)nc1 gave an IC50 of 270 nM. Cc1c(CNC2CCCCC2)nn(-c2ccc(Cl)cc2Cl)c1-c1ccc(Cl)cc1 showed an IC50 of 75 nM. In the case of Cc1c(CNC2CCCC2)nn(-c2ccc(Cl)cc2Cl)c1-c1ccncc1, the IC50 is reported as greater than 1000 nM. With Cc1c(CNC2CCCC2)nn(-c2ccc(Cl)cc2Cl)c1-c1ccccn1 the IC50 was 530 nM. For Cc1c(CNCCC(C)C)nn(-c2ccc(Cl)cc2Cl)c1-c1ccc(Cl)cc1, the IC50 was 150 nM. CCc1ccc(-c2c(C)c(CNC3CCCC3)nn2-c2ncccc2Cl)cn1 showed an IC50 of 67 nM. In the case of Cc1ccc(-c2c(C)c(CN[C@H]3CC[C@@H](F)C3)nn2-c2ncccc2Cl)cn1, the IC50 is reported as 2.5 nM. Cc1ccc(-c2c(C)c(CNC3CCCC3)nn2-c2ncc(Cl)cc2Cl)cn1 showed an IC50 of 8.2 nM. Compound Cc1c(CNCC(C)C)nn(-c2ccc(Cl)cc2Cl)c1-c1ccc(Cl)cc1 has an IC50 of 150 nM. In the case of Cc1ccc(-c2c(C)c(CNC3CCC(F)(F)C3)nn2-c2ncccc2Cl)cn1 (stereo not given), the IC50 is reported as 9.3 nM. Compound Cc1ccc(-c2c(C)c(CNC3CCCC3)nn2-c2ncccc2C)cn1 has an IC50 of 33 nM. For Cc1cncc(-c2c(C)c(CNC3CCCC3)nn2-c2ncccc2Cl)c1, the IC50 was 13 nM. In the case of Cc1c(CNC(C)C)nn(-c2ccc(Cl)cc2Cl)c1-c1ccc(Cl)cc1, the IC50 is reported as 350 nM. Compound Cc1ccc(-c2c(C)c(CNC3CCCC3)nn2-c2ncccc2Cl)cn1 has an IC50 of 4 nM. In the case of Cc1c(CN(C(C)C)C2CCCCC2)nn(-c2ccc(Cl)cc2Cl)c1-c1ccc(Cl)cc1, the IC50 is reported as greater than 1000 nM. For Cc1ccc(-c2c(C)c(CNC3CCCC3)nn2-c2ncccc2S(C)(=O)=O)cn1, the IC50 was 72 nM. With Cc1ncc(-c2c(C)c(CN[C@H]3CC[C@@H](F)C3)nn2-c2ncccc2Cl)cc1F the IC50 was 0.52 nM. Cc1c(CNC2CCCC2)nn(-c2ccc(Cl)cc2Cl)c1-c1ccc(Cl)cc1 gave an IC50 of 28 nM. In the case of Cc1ccc(-c2c(C)c(CNC3CCCC3)nn2-c2ncccc2C(F)(F)F)cn1, the IC50 is reported as 36 nM. Cc1c(CN2CCCCC2)nn(-c2ccc(Cl)cc2Cl)c1-c1ccc(Cl)cc1 gave an IC50 of 560 nM. In the case of Cc1c(CN(C)C2CCCCC2)nn(-c2ccc(Cl)cc2Cl)c1-c1ccc(Cl)cc1, the IC50 is reported as greater than 1000 nM. Cc1c(CNC2CCCC2)nn(-c2ncccc2Cl)c1-c1cccnc1 showed an IC50 of 61 nM. Work on Cc1ncc(-c2c(C)c(CNC3CCCC3)nn2-c2ncccc2Cl)cc1F yielded an IC50 of 1.1 nM.

Target: T1, Nociceptin receptor
Test: Antagonist activity at ORL1 receptor expressed in CHO cells assessed as inhibition of NC/OFQ-stimulated [35S]GTPgammaS binding
Format: functional, cell-based
Settings: not given
Compound Cc1c(CNC2CCCC2)nn(-c2ncccc2Cl)c1-c1ccc(Cl)nc1 has an IC50 of 12 nM. Cc1ccc(-c2c(C)c(CNC3CCCC3F)nn2-c2ncccc2Cl)cn1 (stereo not given) gave an IC50 of 11 nM. Work on Cc1ccc(-c2c(C)c(CN[C@H]3CC[C@@H](F)C3)nn2-c2ncccc2Cl)cn1 yielded an IC50 of 1 nM. In the case of Cc1ccc(-c2c(C)c(CNC3CCC(F)(F)C3)nn2-c2ncccc2Cl)cn1 (stereo not given), the IC50 is reported as 4.5 nM. Cc1c(CNC(C)C)nn(-c2ccc(Cl)cc2Cl)c1-c1ccc(Cl)cc1 showed an IC50 of 480 nM. Compound Cc1ccc(-c2c(C)c(CNC3CCCC3)nn2-c2ncccc2Cl)cn1 has an IC50 of 4.7 nM. Work on Cc1ncc(-c2c(C)c(CN[C@H]3CC[C@@H](F)C3)nn2-c2ncccc2Cl)cc1F yielded an IC50 of 0.31 nM. Work on Cc1ncc(-c2c(C)c(CNC3CCCC3)nn2-c2ncccc2Cl)cc1F yielded an IC50 of 1.2 nM.

Target: Voltage-gated inwardly rectifying potassium channel KCNH2 (Homo sapiens, UniProt Q12809)
Sequence (Q12809 whole entry): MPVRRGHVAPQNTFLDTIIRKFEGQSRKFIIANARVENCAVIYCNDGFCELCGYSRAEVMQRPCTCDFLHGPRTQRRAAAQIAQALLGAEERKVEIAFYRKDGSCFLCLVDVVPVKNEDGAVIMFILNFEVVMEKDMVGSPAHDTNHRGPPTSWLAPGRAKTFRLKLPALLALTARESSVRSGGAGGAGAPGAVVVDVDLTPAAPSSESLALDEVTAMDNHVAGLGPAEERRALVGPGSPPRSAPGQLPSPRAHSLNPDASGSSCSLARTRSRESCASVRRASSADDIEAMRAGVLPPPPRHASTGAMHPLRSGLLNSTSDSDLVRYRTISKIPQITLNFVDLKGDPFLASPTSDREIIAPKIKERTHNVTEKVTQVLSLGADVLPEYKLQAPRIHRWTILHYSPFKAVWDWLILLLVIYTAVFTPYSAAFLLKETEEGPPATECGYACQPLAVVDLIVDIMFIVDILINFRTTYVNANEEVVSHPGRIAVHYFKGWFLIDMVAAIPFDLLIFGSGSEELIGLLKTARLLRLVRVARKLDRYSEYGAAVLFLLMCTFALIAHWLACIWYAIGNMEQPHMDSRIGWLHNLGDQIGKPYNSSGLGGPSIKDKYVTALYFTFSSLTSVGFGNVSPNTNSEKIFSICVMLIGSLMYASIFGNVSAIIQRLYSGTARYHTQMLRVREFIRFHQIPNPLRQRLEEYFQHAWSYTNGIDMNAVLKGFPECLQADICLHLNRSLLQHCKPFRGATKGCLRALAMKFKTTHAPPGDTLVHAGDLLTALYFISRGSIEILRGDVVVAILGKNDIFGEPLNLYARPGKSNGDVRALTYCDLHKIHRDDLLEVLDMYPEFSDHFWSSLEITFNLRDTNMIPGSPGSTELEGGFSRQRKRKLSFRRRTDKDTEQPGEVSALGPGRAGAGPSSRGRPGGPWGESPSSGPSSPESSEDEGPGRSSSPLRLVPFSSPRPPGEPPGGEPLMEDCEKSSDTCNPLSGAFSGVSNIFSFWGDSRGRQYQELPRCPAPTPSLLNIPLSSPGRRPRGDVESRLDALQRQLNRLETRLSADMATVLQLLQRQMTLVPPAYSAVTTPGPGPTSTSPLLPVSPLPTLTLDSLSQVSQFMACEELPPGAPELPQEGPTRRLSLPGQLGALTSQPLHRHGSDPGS
Test: Displacement of [35S]MK499 from human ERG expressed in HEK293 cells
Settings: not given
For Cc1c(CNC2CCCC2)nn(-c2ncccc2Cl)c1-c1ccc(Cl)nc1, the IC50 was 2700 nM. In the case of Cc1ccc(-c2c(C)c(CNC3CCCC3F)nn2-c2ncccc2Cl)cn1 (stereo not given), the IC50 is reported as 30000 nM. For Cc1ccc(-c2c(C)c(CNC3CCC(F)(F)C3)nn2-c2ncccc2Cl)cn1 (stereo not given), the IC50 was 21000 nM. Compound Cc1cncc(-c2c(C)c(CNC3CCCC3)nn2-c2ncccc2Cl)c1 has an IC50 of 9000 nM. Work on Cc1c(CNC(C)C)nn(-c2ccc(Cl)cc2Cl)c1-c1ccc(Cl)cc1 yielded an IC50 of 23 nM. Cc1ccc(-c2c(C)c(CNC3CCCC3)nn2-c2ncccc2Cl)cn1 showed an IC50 of 16000 nM. With Cc1ncc(-c2c(C)c(CN[C@H]3CC[C@@H](F)C3)nn2-c2ncccc2Cl)cc1F the IC50 was 41000 nM. Work on Cc1c(CNC2CCCC2)nn(-c2ccc(Cl)cc2Cl)c1-c1ccc(Cl)cc1 yielded an IC50 of 23 nM. Compound Cc1c(CNC2CCCC2)nn(-c2ncccc2Cl)c1-c1cccnc1 has an IC50 of 23000 nM.

Test system: not listed separately
Test: Lipophilicity, log D at pH 7.4 by shake-flask method
Format: physicochemical
Settings: buffer
In the case of Cc1c(CNC2CCCC2)nn(-c2ncccc2Cl)c1-c1ccc(Cl)nc1, the logD is reported as 2.1. Cc1ccc(-c2c(C)c(CNC3CCCC3F)nn2-c2ncccc2Cl)cn1 (stereo not given) showed a logD of 2. Cc1c(CNC2CCCC2)nn(-c2ncccc2Cl)c1-c1ccc(C(F)(F)F)nc1 showed a logD of 2.2. Cc1c(CNC2CCCC2)nn(-c2ccc(Cl)cc2Cl)c1-c1cccnc1 gave a logD of 2.9. Compound CCc1ccc(-c2c(C)c(CNC3CCCC3)nn2-c2ncccc2Cl)cn1 has a logD of 2. Work on Cc1ccc(-c2c(C)c(CN[C@H]3CC[C@@H](F)C3)nn2-c2ncccc2Cl)cn1 yielded a logD of 1.3. Cc1ccc(-c2c(C)c(CNC3CCCC3)nn2-c2ncc(Cl)cc2Cl)cn1 gave a logD of 2.5. Cc1ccc(-c2c(C)c(CNC3CCC(F)(F)C3)nn2-c2ncccc2Cl)cn1 (stereo not given) showed a logD of 2.1. Compound Cc1ccc(-c2c(C)c(CNC3CCCC3)nn2-c2ncccc2C)cn1 has a logD of 1.2. Cc1cncc(-c2c(C)c(CNC3CCCC3)nn2-c2ncccc2Cl)c1 gave a logD of 1.6. Cc1ccc(-c2c(C)c(CNC3CCCC3)nn2-c2ncccc2Cl)cn1 gave a logD of 1.7. Compound Cc1ncc(-c2c(C)c(CN[C@H]3CC[C@@H](F)C3)nn2-c2ncccc2Cl)cc1F has a logD of 1.8. Cc1c(CNC2CCCC2)nn(-c2ccc(Cl)cc2Cl)c1-c1ccc(Cl)cc1 showed a logD greater than 4. With Cc1ccc(-c2c(C)c(CNC3CCCC3)nn2-c2ncccc2C(F)(F)F)cn1 the logD was 1.9. Cc1c(CNC2CCCC2)nn(-c2ncccc2Cl)c1-c1cccnc1 showed a logD of 1.3. With Cc1ncc(-c2c(C)c(CNC3CCCC3)nn2-c2ncccc2Cl)cc1F the logD was 2.1.

Target: Mu-type opioid receptor (Homo sapiens, UniProt P35372)
Sequence (P35372 whole entry): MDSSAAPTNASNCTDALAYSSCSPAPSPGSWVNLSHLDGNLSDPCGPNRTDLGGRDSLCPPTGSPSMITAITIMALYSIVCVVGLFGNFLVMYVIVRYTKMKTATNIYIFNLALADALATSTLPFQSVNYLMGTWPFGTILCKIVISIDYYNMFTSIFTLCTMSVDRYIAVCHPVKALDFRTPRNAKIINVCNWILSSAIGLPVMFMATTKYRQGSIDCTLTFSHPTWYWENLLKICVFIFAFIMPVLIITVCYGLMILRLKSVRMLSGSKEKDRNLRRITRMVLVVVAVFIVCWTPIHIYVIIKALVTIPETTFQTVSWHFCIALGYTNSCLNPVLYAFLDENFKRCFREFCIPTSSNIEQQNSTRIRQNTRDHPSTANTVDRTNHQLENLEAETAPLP
Test: Displacement of [3H]diprenorphin from human cloned mu opioid receptor expressed in CHO cells
Format: cell-based
Settings: not given
Work on Cc1ncc(-c2c(C)c(CN[C@H]3CC[C@@H](F)C3)nn2-c2ncccc2Cl)cc1F yielded an IC50 of 5600 nM.

Target: Kappa-type opioid receptor (Homo sapiens, UniProt P41145)
Sequence (P41145 whole entry): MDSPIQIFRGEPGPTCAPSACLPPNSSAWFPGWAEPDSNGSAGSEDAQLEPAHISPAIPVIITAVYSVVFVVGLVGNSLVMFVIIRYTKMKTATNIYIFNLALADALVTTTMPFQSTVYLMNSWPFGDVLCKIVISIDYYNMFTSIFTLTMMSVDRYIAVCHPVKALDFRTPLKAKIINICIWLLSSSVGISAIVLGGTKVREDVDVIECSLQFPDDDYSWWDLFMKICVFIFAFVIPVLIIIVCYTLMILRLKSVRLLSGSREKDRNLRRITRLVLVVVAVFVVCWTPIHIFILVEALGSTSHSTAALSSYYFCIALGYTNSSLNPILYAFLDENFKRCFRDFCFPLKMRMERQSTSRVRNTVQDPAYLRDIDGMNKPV
Test: Displacement of [3H]U69593 from human cloned kappa opioid receptor expressed in CHO cells
Format: cell-based
Settings: not given
For Cc1ncc(-c2c(C)c(CN[C@H]3CC[C@@H](F)C3)nn2-c2ncccc2Cl)cc1F, the IC50 was 530 nM.
